The source of these data is patent US20080305958A1, “Process for Liquid or gas Chromatography/Mass Spectrometry Based Biomolecular Screening for Drug Discovery” (priority 2004, published 2008).

Usually IC50 stands for the midpoint of a concentration-inhibition curve. A high value points to a need for much substance.

This assay has as its target T1, M CPT-I (Homo sapiens, UniProt Q92523).
T1 sequence (Q92523 1-772): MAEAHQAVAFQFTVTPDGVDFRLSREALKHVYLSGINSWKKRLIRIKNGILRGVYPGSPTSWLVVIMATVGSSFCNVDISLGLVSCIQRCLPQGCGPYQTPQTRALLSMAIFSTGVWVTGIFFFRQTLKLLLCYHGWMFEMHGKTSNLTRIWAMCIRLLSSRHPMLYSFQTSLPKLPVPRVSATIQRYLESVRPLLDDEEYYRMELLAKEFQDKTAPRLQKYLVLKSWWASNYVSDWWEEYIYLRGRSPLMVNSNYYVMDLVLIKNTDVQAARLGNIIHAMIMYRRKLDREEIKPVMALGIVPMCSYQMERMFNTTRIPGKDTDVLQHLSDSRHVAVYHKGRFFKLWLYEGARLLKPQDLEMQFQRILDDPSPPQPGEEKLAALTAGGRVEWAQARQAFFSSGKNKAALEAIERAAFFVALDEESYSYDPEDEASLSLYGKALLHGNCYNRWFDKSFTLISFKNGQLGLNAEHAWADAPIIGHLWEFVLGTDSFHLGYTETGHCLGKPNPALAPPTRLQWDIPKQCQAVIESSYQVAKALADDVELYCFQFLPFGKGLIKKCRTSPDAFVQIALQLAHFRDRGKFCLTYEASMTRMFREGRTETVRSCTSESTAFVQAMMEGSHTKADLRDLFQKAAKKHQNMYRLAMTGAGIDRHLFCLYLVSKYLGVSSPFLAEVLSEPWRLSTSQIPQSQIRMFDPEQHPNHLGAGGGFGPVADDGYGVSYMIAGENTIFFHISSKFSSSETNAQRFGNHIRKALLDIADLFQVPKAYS
In words: LC/MS HTS assay, malonyl-CoA inhibition of human MCPT-I (palmitoyl-CoA and carnitine converted to palmitoyl carnitine). In kind it is biochemical. As to conditions: FIG. 9B.

Description: The biological activity used for the assay is the conversion by CPT-1 of palmitoyl-CoA (fatty acid-CoA) and carnitine to palmitoyl carnitine complex and free CoA.
The biological activity used for the assay is the conversion by CPT-1 of palmitoyl-CoA and carnitine to palmitoyl carnitine complex and free CoA.

For the compound `CC(C)(COP(=O)(O)OP(=O)(O)OC[C@H]1O[C@@H](n2cnc3c(N)ncnc32)[C@H](O)[C@@H]1OP(=O)(O)O)[C@@H](O)C(=O)NCCC(=O)NCCSC(=O)CC(=O)O` [Malonyl-CoA], the half-maximal inhibitory concentration (IC50) came to 0.041 µM.
